Where two headings read alike, the source gives them in different places.
Tests used:
rabbit illiac arteries [1] = details: in vivo, 28 days
rabbit illiac arteries [2] = assay: Methylprednisolone/Cilostazol/Paclitaxel/Taxus study: stents implanted in rabbit iliac arteries for 28 days, histomorphic and histopathologic analyses; details: for reduction in neointima (in words): coated stents; for EEL Area / IEL Area / Intimal Area / Lumen Area / Stenosis: ALPHA-3 coated Atrium Flyer stent, mean ± SD
rabbit illiac arteries [3] = details: in vivo
Method: The Atrium Flyer is compared with bare metal stents, the Atrium Flyer coated with ALPHA-3 without drugs, and Cypher™ drug eluting stent. Histomorphic and histopathologic analyses are then performed.

rabbit's iliac vessel = assay: Rapamycin drug eluting stents in rabbit iliac vessel (inflammation, overlapping stents); assay type: in vivo
Source text: The inventors postulate, based on these animal study results, that one consequence of these types of drugs is retarded endothelial cell coverage, and that current drug eluting stents promote more chronic inflammation than would normally be present with a non drug eluting bare metal stent.

rabbit iliacs = assay: Local delivery of calcineurin inhibiting compounds after vascular injury in rabbit iliacs; assay type: in vivo
Source text: Studies in rabbit iliacs following vascular injury conducted by and/or on behalf of the inventors show the benefits of using calcineurin inhibiting compounds like Tacrolimus, Cyclosporin A (CsA) and Cyclosporin derivatives, in small animals like the rat, and in rabbits. […] Such vascular injury and sirolimus medicated inflammation can be characterized as having excessive giant cell formation and esinophil propagation.

SMILES: O=C1CCc2cc(OCCCCc3nnnn3C3CCCCC3)ccc2N1 [Cilostazol]
- Fibrin Score (rabbit illiac arteries [1]): 0
- reduction in neointima (in words) (rabbit illiac arteries [2]): No reduction in neointima

SMILES: C[C@H]1C[C@@H]2[C@H]([C@@H](O)C[C@@]3(C)[C@H]2CC[C@]3(O)C(=O)CO)[C@@]2(C)C=CC(=O)C=C12 [Methylprednilsolone]
- EEL Area (rabbit illiac arteries [2]; high dose): 5.50 ± 0.26 mm^2
- IEL Area (rabbit illiac arteries [2]; high dose): 5.25 ± 0.24 mm^2
- Intimal Area (rabbit illiac arteries [2]; high dose): 1.165 ± 0.231 mm^2
- Lumen Area (rabbit illiac arteries [2]; high dose): 4.08 ± 0.21 mm^2
- Stenosis (rabbit illiac arteries [2]; high dose): 22.2 ± 1.4%
- EEL Area (rabbit illiac arteries [2]; low dose): 5.90 ± 0.92 mm^2
- IEL Area (rabbit illiac arteries [2]; low dose): 5.62 ± 0.90 mm^2
- Intimal Area (rabbit illiac arteries [2]; low dose): 1.054 ± 0.923 mm^2
- Lumen Area (rabbit illiac arteries [2]; low dose): 4.42 ± 0.82 mm^2
- Stenosis (rabbit illiac arteries [2]; low dose): 21.5 ± 4.7%
- EEL Area (rabbit illiac arteries [2]; mid-dose): 5.68 ± 0.34 mm^2
- IEL Area (rabbit illiac arteries [2]; mid-dose): 5.40 ± 0.30 mm^2
- Intimal Area (rabbit illiac arteries [2]; mid-dose): 1.247 ± 0.136 mm^2
- Lumen Area (rabbit illiac arteries [2]; mid-dose): 4.16 ± 0.40 mm^2
- Stenosis (rabbit illiac arteries [2]; mid-dose): 23.1 ± 2.2%
- reduction in neointima (in words) (rabbit illiac arteries [2]): No reduction in neointima

SMILES: CC(=O)O[C@H]1C(=O)[C@@]2(C)[C@H]([C@H](OC(=O)c3ccccc3)[C@]3(O)C[C@H](OC(=O)[C@H](O)[C@@H](NC(=O)c4ccccc4)c4ccccc4)C(C)=C1C3(C)C)[C@]1(OC(C)=O)CO[C@@H]1C[C@@H]2O [Paclitaxel]
- Fibrin Score (rabbit illiac arteries [1]): 0
- arterial healing compared with Taxus Express (rabbit illiac arteries [1]): (greater) arterial healing at 28 days compared with Taxus™ Express
- in-stent neointimal growth (in words) (rabbit illiac arteries [2]; Atrium stents, high dose): suppresses in-stent neointimal growth at 28 days similarly to the Taxus™ Express stent

SMILES: CO[C@H]1C[C@@H]2CC[C@@H](C)[C@@](O)(O2)C(=O)C(=O)N2CCCC[C@H]2C(=O)O[C@H]([C@H](C)C[C@@H]2CC[C@@H](O)[C@H](OC)C2)CC(=O)[C@H](C)/C=C(\C)[C@@H](O)[C@@H](OC)C(=O)[C@H](C)C[C@H](C)/C=C/C=C/C=C/1C [Sirolimus]
- tolerability of the coated stent (rabbit illiac arteries [3]): well tolerated, producing no adverse reaction
- inflammatory response around the drug eluting stent (rabbit's iliac vessel; rabbit iliacs): presence of numerous giant cells and esinophils
- inflammation induced by the overlapping drug coating (rabbit's iliac vessel; two separate drug eluting stents overlapping in rabbit iliac vessel): increases nearly two fold
- arterial healing compared with Taxus Express (rabbit illiac arteries [2]; Atrium stents, high dose): (greater) arterial healing at 28 days compared with Taxus™ Express

SMILES: C=CC[C@@H]1/C=C(\C)C[C@H](C)C[C@H](OC)[C@H]2O[C@@](O)(C(=O)C(=O)N3CCCC[C@H]3C(=O)O[C@H](/C(C)=C/[C@@H]3CC[C@@H](O)[C@H](OC)C3)[C@H](C)[C@@H](O)CC1=O)[C@H](C)C[C@@H]2OC [Tacrolimus]
- inflammation following vascular injury (rabbit iliacs): effectively reduce inflammation following vascular injury

Reference: US20100034867A1, “DRUG DELIVERY COATING FOR USE WITH A MEDICAL DEVICE AND METHODS OF TREATING VASCULAR INJURY” (ATRIUM MEDICAL CORPORATION, priority 2005, published 2010)
